{
  "source": "patent US9718868B2",
  "about": "“Parathyroid hormone, insulin, and related peptides conjugated to bone targeting moieties and methods and making and using thereof” (THE GOVERNORS OF THE UNIVERSITY OF ALBERTA, priority 2012, dated 2017)",
  "system": "bone volume in ovariectomized rats",
  "assay": "Change in bone volume by microCT in ovariectomized rat model of osteoporosis",
  "type": "in vivo",
  "conditions": "OVX female rats, 60 μg/kg/day subcutaneous daily for 8 weeks starting 8 weeks after surgery; at 16 weeks post-ovariectomy; compared with sham, OVX-BP, OVX-PTH and weekly BP-PEG-PTH groups",
  "excerpt": "Sixty female rats were divided into five groups and evaluated using the ovariectomy procedure (OVX): control (sham-operated; n=12), ovariectomy with bisphosphonate treatment (OVX-BP; n=12), OVX with teriparatide treatment (OVX-PTH; daily; n=12), OVX with daily BP-PEG-PTH treatment (n=12), and OVX with weekly BP-PEG-PTH treatment (n=12), where BP is 2-[(3-mercaptopropyl)thio]ethane-1,1-diyl}bis(phosphonic acid). Rats were ovariectomized at week 0 and the control group underwent a sham ovariectomy. Rats were left untreated for 8 weeks after surgery to allow for osteopenia to develop. After 8 weeks, rats in the OVX-PTH group received daily subcutaneous injections of PTH (60 μg/kg/day) for 8 weeks. Rats in the OVX-BP group received daily doses of bisphosphonate. Rats in the OVX-BP-PEG-PTH daily group received daily subcutaneous injections of BP-PEG-PTH (60 μg/kg/day). Rats in the OVX-BP-PEG-PTH weekly group received weekly subcutaneous injections of BP-PEG-PTH (60 μg/kg/week).\nIn vivo change in bone volume was measured by micro-computed tomography (microCT).",
  "data": [
    {"substance": "BP-PEG-PTH: hPTH (1-34) conjugated via Maleimide-PEG3500-NHS linker to thiol-bisphosphonate 2-[(3-mercaptopropyl)thio]ethane-1,1-diyl}bis(phosphonic acid)", "values": [
      {"measurement": "In vivo change in bone volume (microCT)", "result": "greatest increase in bone volume"}
    ]}
  ]
}
